Measured values taken from patent publication US20050164882A1, “Method for increasing the resistance of plants to the phytotoxicity of agrochemicals” (priority 2002, published 2005).

Experiments:
[1] = tested on: Echinochloa crus-galli (barnyardgrass, ECHCG); test: Greenhouse post-emergence phytotoxicity, barnyardgrass; assay type: in vivo; conditions: Table 2a, application rate 0.0039 kg/ha, scale 0 to 100
From the text: (§1) The experimental period extended over 2 to 4 weeks.

[2] = tested on: Oryza sativa (rice, ORYSA); test: Greenhouse post-emergence phytotoxicity, rice; conditions: Table 2a
Protocol: The active ingredients were prepared separately or jointly as a 10% emulsion in a mixture of 85% by weight of cyclohexanone, 5% by weight of Nekanil® LN (Lutensol® AP6, wetter with emulsifying and dispersing action based on ethoxylated alkylphenols) and 10% by weight of Wettol® EM (nonionic emulsifier based on ethoxylated castor oil) and diluted with water to give the desired concentration.
The culture containers used were plastic pots containing loamy sand with approximately 3.0% humus as substrate. The seeds of the test plants were sown separately for each species.
The test plants were grown separately as seedlings and transplanted into the experimental containers a few days before the treatment.
Depending on the species, the plants were kept at temperatures of from 10 to 25° C. or 20 to 35° C. The experimental period extended over 2 to 4 weeks. During this time, the plants were tended, and their response to the individual treatments was evaluated.
The phytotoxicity was evaluated using a scale of from 0 to 100. In this context, 100 means complete destruction of at least the aerial parts, and 0 means no damage or normal course of growth.

Rice cv. “Koshihikari” = test: Effect on plant growth: plant height (stunting) of rice clumps after seedbox spray and transplanting into the field; assay type: in vivo; conditions: 200 g of active ingredient A per hectare; three weeks after the treatment
From the text: Rice cv. “Koshihikari” was sown in a seedbox and grown for 24 days under controlled warm and moist conditions in controlled-environment cabinets and in the greenhouse. Two days before the rice was transplanted into the field, each of the seedboxes was sprayed to runoff point with preparations of the active ingredient in the concentrations mentioned hereinbelow in the form of an aqueous suspension made with a stock solution consisting of 10% active ingredient, 85% cyclohexanone and 5% emulsifier. The seedboxes were subsequently cultured in the greenhouse for a further 2 days until the rice was manually transplanted into the field at a rate of 5 clumps per m^2.
Three weeks after the treatment, the plant height of the rice clumps was measured and compared with untreated rice plants. The extent of plant stunting is a measure for the plant-damaging effect of substances on the root system.

[3] = tested on: Pharbitis purpurea (morningglory, PHBPU); test: Greenhouse post-emergence phytotoxicity, morningglory; assay type: in vivo; conditions: scale 0 to 100
From the text: as §1

[4] = tested on: Triticum aestivum (spring wheat, TRZAS); test: Greenhouse post-emergence phytotoxicity, spring wheat; assay type: in vivo; conditions: Table 2b, scale 0 to 100
From the text: as §1

[5] = tested on: Chenopodium album (pigweed, CHEAL); test: Greenhouse post-emergence phytotoxicity, pigweed; assay type: in vivo; conditions: Table 2b, application rate 0.0313 kg/ha, scale 0 to 100
From the text: as §1

With `Cc1c(C(=O)c2cnn(C)c2O)ccc(S(C)(=O)=O)c1C1=NOCC1` [B, [3-(4,5-dihydroisoxazol-3-yl)-4-methane-sulfonyl-2-methylphenyl]-(5-hydroxy-1-methyl-1H-pyrazol-4-yl)-methanone] the “Pytotoxicity ECHCG” value [1] was 90 and the “Pytotoxicity ORYSA” value ([2]; application rate 0.0039 kg/ha, scale 0 (no damage) to 100 (complete destruction)) was 20.
With `C[C@H](Nc1c(-c2c(F)cc(F)cc2F)c(Cl)nc2ncnn12)C(F)(F)F` [A, [5-chloro-6-(2,4,6-trifluorophenyl)-[1,2,4]triazolo[1,5-a]pyrimidin-7-yl]-((S)-2,2,2-trifluoro-1-methylethyl)amine] the “stunting (plant height compared with untreated rice plants)” value (Rice cv. “Koshihikari”) was 15%.
`FC(F)(F)c1ccc(-c2nccc(Oc3cccc(C(F)(F)F)c3)n2)cc1` [C, 4-(3-trifluoromethylphenoxy)-2-(4-trifluoromethylphenyl)pyrimidine] was tested, and the “Pytotoxicity PHBPU” value ([3]; Table 2a, application rate 0.0078 kg/ha) was 98, the “Pytotoxicity PHBPU” value ([3]; Table 2a, application rate 0.0156 kg/ha) was 98 and the “Pytotoxicity PHBPU” value ([3]; Table 2b, application rate 0.0078 kg/ha) was 98. The “Pytotoxicity PHBPU” value ([3]; Table 2b, application rate 0.0156 kg/ha) was 98, the “Pytotoxicity TRZAS” value ([4]; application rate 0.0078 kg/ha) was 20 and the “Pytotoxicity TRZAS” value ([4]; application rate 0.0156 kg/ha) was 25. The “Pytotoxicity TRZAS” value ([4]; application rate 0.0313 kg/ha) was 30, the “Pytotoxicity CHEAL” value [5] was 98 and the “Pytotoxicity ORYSA” value ([2]; application rate 0.0078 kg/ha, scale 0 to 100) was 10. For the same compound, the “Pytotoxicity ORYSA” value ([2]; application rate 0.0156 kg/ha, scale 0 to 100) was 10.
